{"source": "patent US20190307690A1", "about": "(THE AMERICAN UNIVERSITY IN CAIRO, priority 2016, published 2019)", "key": {"[1]": {"assay": "In-vitro drug release analysis (dialysis, PBS pH 7.4) with release kinetics and f1/f2 comparison", "type": "physicochemical", "details": "oxaliplatin release", "protocol": "The drug release testing was conducted according to a described method (Shazly et al., Comparison of dialysis and dispersion methods for in vitro release determination of drugs from multilamellar liposomes, Dissolution Technol., vol. 15, no. 2, pp. 7-10, 2008). […] A volume of 0.5 ml of liposomal preparation was placed in a dialysis tubing (3.8 cm in length). Both ends were tied. The dialysis bag was suspended in 25 ml PBS at pH 7.4 and maintained at 37±0.5° C. (Shazly et al., 2008). The dispersion was rotated at 200 strokes/minute in a water bath shaker (Shazly et al., 2008). At predetermined time intervals of 0.25, 0.5, 1, 1.5, 2, 4, 6, 8, 12, 24, 48, and 72 h; 1 ml aliquots were sampled and replaced with 1 ml fresh pH 7.4 PBS, which was maintained at the same temperature as the samples being 37±0.5° C. Drug concentrations were determined using HPLC.\nTwo methods were used to investigate the kinetics of drug release profile from the prepared liposomal formulations.\nThis method involved the fitting of the release data to one of the following seven release kinetic models.\nWhere, Qt is the amount of drug released in time t, Q0 is the initial amount of drug in the solution and K0 is the zero order release constant expressed in units of concentration/time. To study the release kinetics, data obtained from in-vitro drug release studies were plotted as cumulative amount of drug released versus time.\nWhere, Ct is the concentration of drug released in time t, C0 is the initial concentration of drug, K1 is the first order rate constant. The data obtained were plotted as log cumulative percentage of drug remaining versus time which would yield a straight line with a slope of −K/2.303.\nWhere, Q is the amount of drug released in time t, KH is the Higuchi dissolution constant. The data obtained were plotted as cumulative percentage of drug released versus square root of time.\nWhere, Qt is the amount of drug remaining in time t, Q0 is the initial amount of the drug in liposome and KC is the rate constant for Hixson-Crowell rate equation. The data obtained were plotted as Cube root of cumulative percentage of drug remaining versus time.\nWhere Mt/M∞ is a fraction of drug released at time t, KP is the release rate constant and n is the release exponent. The data obtained were plotted as log (cumulative percentage of drug released) versus log (time).\nWhere [Mt/M∞] is a fraction of drug released at time t, KB is the release rate constant. To study the release kinetics, data obtained from in-vitro drug release were plotted as [d(Mt/M∞)/dt] against the root of time inverse on x-axis.\nWhere Vm is the maximum release rate, Km is the Michaelis-Menten constant, C is the amount of drug released, and t is time. The data obtained were plotted as drug release % versus time. Michaelis-menten was previously reported in describing the release kinetics of Ketorolac from silica nanoparticles (Lopez Goerneet al., Obtaining of sol-gel ketorolac-silica nanoparticles: Characterization and drug release kinetics, J. Nanomater., vol. 2013, 2013).\nThis method utilizes the difference factor (f1), similarity factor (f2) to compare the release profiles of different formulations by measuring the percent difference and the percent similarity respectively.\nWhere, n is the number of release sample time intervals, Rt, and Tt are the percent released at each time point, t, for the reference and test drug release profiles, respectively."}, "MCF-7 cell line": {"tested_on": "MCF-7 cell line", "assay": "γ-H2AX assay (DNA damage)", "type": "cell-based, human", "details": "2 μM, 1 hr exposure, 24 hours in fresh media; preliminary data", "protocol": "After incubation, the media was discarded and the cells were further incubated in fresh media for 24 hours. Cells were then fixed using formaldehyde and permeabilized with Triton X-100, and subsequently incubated with H2AX primary antibody for 1 hr. Then, cells were washed using PBS and were further incubated for 30 min. in FITC mouse secondary antibody and washed using PBS. Finally cells were stained using DAPI and observed under a fluorescence microscope."}, "[2]": {"details": "reference [91]; cited from earlier work"}}}
{"smiles": "N[C@@H]1CCCC[C@H]1N.O=C([O-])C(=O)[O-].[Pt+2]", "note": "[Oxaliplatin, Platinum(2+) ethanedioate (1R,2R)-1,2-cyclohexanediamine (1:1:1)]", "values": [{"measurement": "Baker-Lonsdale K (release rate constant)", "setting": "[1]", "value": 0.1963}, {"measurement": "First-order K1 (release rate constant)", "setting": "[1]", "value": "−0.0172"}, {"measurement": "Higuchi KH (rate constant)", "setting": "[1]", "value": 4.5644}, {"measurement": "Hixson-Crowell KC (cube root law release constant)", "setting": "[1]", "value": "−0.0127"}, {"measurement": "Korsmeyer-peppas n (slope exponent)", "setting": "[1]", "value": 0.0257}, {"measurement": "Michaelis-Menten K (release rate constant)", "setting": "[1]", "value": 0.0422}, {"measurement": "Zero-order K0 (release rate constant)", "setting": "[1]", "value": 0.3444}, {"measurement": "F1 (difference factor)", "setting": "[1]; Reference LP-Ox", "value": 11.37}, {"measurement": "F2 (similarity factor)", "setting": "[1]; Reference LP-Ox", "value": 50.60}, {"measurement": "F1 (difference factor)", "setting": "[1]; Reference LP-void-Oxpt", "value": 22.47}, {"measurement": "F2 (similarity factor)", "setting": "[1]; Reference LP-void-Oxpt", "value": 38.25}, {"measurement": "F1 (difference factor)", "setting": "[1]; Reference Lipoxal", "value": 252.7}, {"measurement": "F2 (similarity factor)", "setting": "[1]; Reference Lipoxal", "value": 8.940}, {"measurement": "DNA damage magnitude (γ-H2AX immunofluorescence), in words", "setting": "MCF-7 cell line", "value": "relatively lower DNA damage"}, {"measurement": "Cell membrane permeability", "setting": "[2]", "value": "<1 × 10^−6 [91] cm/s"}]}
